The text below walks through data of ChEMBL document CHEMBL1133369, “Synthesis and preliminary biological evaluation of [3H]-MRE 3008-F20: the first high affinity radioligand antagonist for the human A3 adenosine receptors” (Bioorg Med Chem Lett, 2000).

One may read the Kd as the concentration at which binding is half-saturated. Read a low Kd as a tighter complex.

In test [1] the target is T1, Adenosine receptor A3 (Homo sapiens) (UniProt P0DMS8).
T1 sequence (whole entry): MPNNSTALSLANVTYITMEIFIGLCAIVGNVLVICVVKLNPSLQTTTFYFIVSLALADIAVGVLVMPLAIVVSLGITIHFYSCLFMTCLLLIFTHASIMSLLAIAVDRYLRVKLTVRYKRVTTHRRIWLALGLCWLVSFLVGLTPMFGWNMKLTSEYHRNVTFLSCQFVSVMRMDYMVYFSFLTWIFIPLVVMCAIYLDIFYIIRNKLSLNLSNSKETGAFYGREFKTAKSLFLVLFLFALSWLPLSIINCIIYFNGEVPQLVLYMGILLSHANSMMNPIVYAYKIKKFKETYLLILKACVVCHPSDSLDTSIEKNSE
As to the kind of experiment: Binding affinity against human AAdenosine A3 receptor in CHO cells. Format: cell-based.

The next test concerns the target T2, Adenosine receptor A3 (Homo sapiens, UniProt P0DMS8).
T2 sequence (P0DMS8 whole entry): T1 sequence (whole entry)
The experiment in a line: Binding affinity against human Adenosine A3 receptor in CHO cells. Format: cell-based.

With `C=CCn1cc2c(nc(NC(=O)Nc3ccc(OC)cc3)n3nc(-c4ccco4)nc23)n1`, the Bmax in test [1] was 297 fmol/mg. The compound further came in with a Kd on Adenosine receptor A3 of 0.82 nM.
